Source: patent publication US7138361B2, “Herbicidal heterocycles” (E. I. du Pont de Nemours and Company, priority 2000, dated 2006)

How the values were obtained:
Experiment in all cases: Test C preemergence
Type in all cases: in vivo
Sunflower [1] = settings: Rate 250 g/ha, scale 0 to 100, 0 no effect, 100 complete control
[2] = tested on: cocklebur (Xanthium strumarium); settings: for Plant response rating (0 to 100), Cocklebur: visual evaluation after 12 to 14 days
Procedure, shortened: (§1)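 Compounds in non-phytotoxic solvent with surfactant applied preemergence to planted seeds and postemergence to plants at 1- to 4-leaf stage (2–18 cm). Kept in greenhouse 12–14 days, then visually rated against controls on a 0 (no effect) to 100 (complete control) scale.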

[3] = tested on: yellow nutsedge (Cyperus esculentus)
Procedure, shortened: as §1

[4] = tested on: common ragweed (Ambrosia elatior)
Procedure, shortened: as §1

[5] = tested on: Surinam grass (Brachiaria decumbens); settings: for Plant response rating (0 to 100), Surinam grass: visual evaluation after 12 to 14 days
Procedure, shortened: as §1

Sunflower [6] = settings: Rate 125 g/ha; scale 0 to 100, 0 no effect, 100 complete control
[7] = tested on: velvetleaf (Abutilon theophrasti)
Procedure, shortened: as §1

[8] = tested on: johnsongrass (Sorghum halepense); settings: for Plant response rating (0 to 100), Johnsongrass: visual evaluation after 12 to 14 days
Procedure, shortened: as §1

Nightshade = tested on: Nightshade
[9] = tested on: bermudagrass (Cynodon dactylon); settings: for Plant response rating (0 to 100 where 0 is no effect and 100 is complete control), Bermudagrass: visual evaluation after 12 to 14 days
Procedure, shortened: as §1

kochia (Kochia scoparia) = settings: for Plant response rating (0 to 100), Kochia: visual evaluation after 12 to 14 days
Procedure, shortened: as §1

corn (Zea mays) = settings: for Plant response rating (0 to 100), Corn: visual evaluation after 12 to 14 days
Procedure, shortened: as §1

[10] = tested on: goosegrass (Eleusine indica); settings: for Plant response rating (0 to 100), Goosegrass: visual evaluation after 12 to 14 days
Procedure, shortened: as §1

[11] = tested on: giant foxtail (Setaria faberii); settings: for Plant response rating (0 to 100), Foxtail, Giant: visual evaluation after 12 to 14 days
Procedure, shortened: as §1

[12] = tested on: woolly cupgrass (Eriochloa villosa); settings: for Plant response rating (0 to 100), Cupgrass, Woolly: visual evaluation after 12 to 14 days
Procedure, shortened: as §1

[13] = tested on: morningglory (Ipomoea hederacea)
Procedure, shortened: as §1

[14] = tested on: lambsquarters (Chenopodium album)
Procedure, shortened: as §1

[15] = tested on: pigweed (Amaranthus retroflexus)
Procedure, shortened: as §1

[16] = tested on: crabgrass (Digitaria sanguinalis); settings: for Plant response rating (0 to 100), Crabgrass: visual evaluation after 12 to 14 days
Procedure, shortened: as §1

soybean (Glycine max) = tested on: soybean (Glycine max)
Procedure, shortened: as §1

[17] = Rate 125 g/ha, scale 0 to 100, 0 no effect, 100 complete control
[18] = preemergence, Rate 62 g/ha, scale 0 to 100
[19] = preemergence, Rate 500 g/ha, visual evaluation after 12 to 14 days
[20] = preemergence, Rate 250 g/ha, scale 0 to 100, 0 no effect, 100 complete control

With `COc1cccc(N2CCC(n3ccc(C(C)(C)C)n3)C2=O)c1` (stereo not shown) [Compound 87] the “Plant response rating, Sunflower” value (Sunflower [1]) was 20, the “Plant response rating, Cocklebur” value [2, 17] was 0 and the “Plant response rating, Cocklebur” value [2, 18] was 0. For the same molecule, the “Plant response rating (0 to 100), Cocklebur” value ([2]; preemergence, Rate 250 g/ha) was 0, the “Plant response rating (0 to 100), Cocklebur” value ([2]; preemergence, Rate 500 g/ha) was 0 and the “Plant response rating, Nutsedge” value [3, 17] was 20. The “Plant response rating, Nutsedge” value [3, 18] was 20, the “Plant response rating (0 to 100), Nutsedge” value [3, 19] was 20 and the “Plant response rating, Nutsedge” value [3, 20] was 20. For the same molecule, the “Plant response rating, Ragweed, Common” value [4, 17] was 0, the “Plant response rating, Ragweed, Common” value [4, 18] was 0 and the “Plant response rating (0 to 100), Ragweed, Common” value [4, 19] was 0. The “Plant response rating, Ragweed, Common” value [4, 20] was 0, the “Plant response rating, Surinam grass” value [5, 17] was 100 and the “Plant response rating, Surinam grass” value [5, 18] was 40. For the same molecule, the “Plant response rating (0 to 100), Surinam grass” value ([5]; preemergence, Rate 250 g/ha) was 100, the “Plant response rating (0 to 100), Surinam grass” value ([5]; preemergence, Rate 500 g/ha) was 100 and the “Plant response rating, Sunflower” value (Sunflower [6]) was 20. The “Plant response rating, Velvetleaf” value [7, 17] was 10, the “Plant response rating, Velvetleaf” value [7, 18] was 10 and the “Plant response rating (0 to 100), Velvetleaf” value [7, 19] was 20. For the same molecule, the “Plant response rating, Velvetleaf” value [7, 20] was 10, the “Plant response rating, Johnsongrass” value [8, 17] was 90 and the “Plant response rating, Johnsongrass” value [8, 18] was 90. For the same molecule, the “Plant response rating (0 to 100), Johnsongrass” value ([8]; preemergence, Rate 250 g/ha) was 100, the “Plant response rating (0 to 100), Johnsongrass” value ([8]; preemergence, Rate 500 g/ha) was 100 and the “Plant response rating, Nightshade” value (Nightshade; Rate 62 g/ha, scale 0 to 100) was 0. For the same molecule, the “Plant response rating, Nightshade” value (Nightshade; [17]) was 10, the “Plant response rating, Nightshade” value (Nightshade; Rate 250 g/ha, scale 0 to 100, 0 no effect, 100 complete control) was 60 and the “Plant response rating, Bermudagrass” value [9, 17] was 100. The “Plant response rating, Bermudagrass” value [9, 18] was 100, the “Plant response rating (0 to 100 where 0 is no effect and 100 is complete control), Bermudagrass” value ([9]; preemergence, Rate 250 g/ha) was 100 and the “Plant response rating (0 to 100 where 0 is no effect and 100 is complete control), Bermudagrass” value ([9]; preemergence, Rate 500 g/ha) was 100. For the same molecule, the “Plant response rating, Kochia” value (kochia (Kochia scoparia); [17]) was 100, the “Plant response rating, Kochia” value (kochia (Kochia scoparia); [18]) was 100 and the “Plant response rating (0 to 100), Kochia” value (kochia (Kochia scoparia); preemergence, Rate 250 g/ha) was 100. For the same molecule, the “Plant response rating (0 to 100), Kochia” value (kochia (Kochia scoparia); preemergence, Rate 500 g/ha) was 100, the “Plant response rating, Corn” value (corn (Zea mays); [17]) was 70 and the “Plant response rating, Corn” value (corn (Zea mays); [18]) was 40. The “Plant response rating (0 to 100), Corn” value (corn (Zea mays); preemergence, Rate 250 g/ha) was 70, the “Plant response rating (0 to 100), Corn” value (corn (Zea mays); preemergence, Rate 500 g/ha) was 80 and the “Plant response rating, Goosegrass” value [10, 17] was 100. The “Plant response rating, Goosegrass” value [10, 18] was 100, the “Plant response rating (0 to 100), Goosegrass” value ([10]; preemergence, Rate 250 g/ha) was 100 and the “Plant response rating (0 to 100), Goosegrass” value ([10]; preemergence, Rate 500 g/ha) was 100. For the same molecule, the “Plant response rating, Foxtail, Giant” value [11, 17] was 100, the “Plant response rating, Foxtail, Giant” value [11, 18] was 30 and the “Plant response rating (0 to 100), Foxtail, Giant” value ([11]; preemergence, Rate 250 g/ha) was 100. For the same molecule, the “Plant response rating (0 to 100), Foxtail, Giant” value ([11]; preemergence, Rate 500 g/ha) was 100, the “Plant response rating, Cupgrass, Woolly” value [12, 17] was 100 and the “Plant response rating, Cupgrass, Woolly” value [12, 18] was 90. The “Plant response rating (0 to 100), Cupgrass, Woolly” value ([12]; preemergence, Rate 250 g/ha) was 100, the “Plant response rating (0 to 100), Cupgrass, Woolly” value ([12]; preemergence, Rate 500 g/ha) was 100 and the “Plant response rating, Morningglory” value [13, 17] was 0. For the same molecule, the “Plant response rating, Morningglory” value [13, 18] was 0, the “Plant response rating (0 to 100), Morningglory” value [13, 19] was 0 and the “Plant response rating, Morningglory” value [13, 20] was 0. The “Plant response rating, Lambsquarters” value [14, 17] was 100, the “Plant response rating, Lambsquarters” value [14, 18] was 100 and the “Plant response rating (0 to 100), Lambsquarters” value [14, 19] was 100. For the same molecule, the “Plant response rating, Lambsquarters” value [14, 20] was 100, the “Plant response rating, Pigweed” value [15, 17] was 0 and the “Plant response rating, Pigweed” value [15, 18] was 0. For the same molecule, the “Plant response rating (0 to 100), Pigweed” value [15, 19] was 100, the “Plant response rating, Pigweed” value [15, 20] was 100 and the “Plant response rating, Crabgrass” value [16, 17] was 100. For the same molecule, the “Plant response rating, Crabgrass” value [16, 18] was 100, the “Plant response rating (0 to 100), Crabgrass” value ([16]; preemergence, Rate 250 g/ha) was 100 and the “Plant response rating (0 to 100), Crabgrass” value ([16]; preemergence, Rate 500 g/ha) was 100. The “Plant response rating, Soybean” value (soybean (Glycine max); [17]) was 20, the “Plant response rating, Soybean” value (soybean (Glycine max); [18]) was 0 and the “Plant response rating (0 to 100), Soybean” value (soybean (Glycine max); [19]) was 30. The “Plant response rating, Soybean” value (soybean (Glycine max); [20]) was 20.
